Source: patent US8309530B2, “Compositions and methods for modulating ghrelin-mediated conditions” (Washington State University, priority 2009, dated 2012)
Entries after “also recorded” stand apart in the source; their conditions may differ.

Assays:
ghrelin KO mice [1] = assay: obestatin replacement by osmotic minipump in ghrelin KO mice, fasting in cold environment; assay type: in vivo
Description: Likewise, in addition to ghrelin, another product of the ghrelin gene is obestatin. The effects of obestatin on food intake and metabolism appear to be the opposite of those of ghrelin although the results are still inconclusive (2, 10-14). If obestatin has a leptin-like role in the regulation of metabolism, then decreased resistance to metabolic challenge in ghrelin KO mice could be explained by the lack of this hormone. Based on this idea, Applicants attempted to rescue the herein disclosed impaired phenotype by replacing obestatin in ghrelin KO mice. There are several potential ways to do this, although each has its own limitations. The effects of a single bolus injection of obestatin are limited by the half-life of the peptide (22±2 min). […] Because of those limitations, obestatin was replaced using osmotic minipumps. This method also has limitations. The minipumps are filled and implanted at least 10 days before the challenge to allow enough time for recovery and to carry out the experiment. The stability of obestatin in solution at body temperature for such extended time period is unknown. Moreover, some of the biological effects of obestatin show a bell-shaped dose-response relationship. […]
Body temperature data are expressed as difference from baseline in 10-min averages.

ghrelin KO mice [2] = assay: bolus injections of obestatin in ghrelin KO mice (preliminary data); assay type: in vivo; details: preliminary data (not shown)
Description: Likewise, in addition to ghrelin, another product of the ghrelin gene is obestatin. The effects of obestatin on food intake and metabolism appear to be the opposite of those of ghrelin although the results are still inconclusive (2, 10-14). If obestatin has a leptin-like role in the regulation of metabolism, then decreased resistance to metabolic challenge in ghrelin KO mice could be explained by the lack of this hormone. Based on this idea, Applicants attempted to rescue the herein disclosed impaired phenotype by replacing obestatin in ghrelin KO mice. There are several potential ways to do this, although each has its own limitations. The effects of a single bolus injection of obestatin are limited by the half-life of the peptide (22±2 min). […] Because of those limitations, obestatin was replaced using osmotic minipumps. This method also has limitations. The minipumps are filled and implanted at least 10 days before the challenge to allow enough time for recovery and to carry out the experiment. The stability of obestatin in solution at body temperature for such extended time period is unknown. Moreover, some of the biological effects of obestatin show a bell-shaped dose-response relationship. It is unknown whether the amount of obestatin released from the minipumps provides the optimal plasma levels or appropriate pulsatile or ultradian secretion patterns.

ghrelin mRNA = assay: initial screening of ghrelin siRNAs using cultured cells: suppression of ghrelin mRNA in vitro; assay type: cell-based, mouse
Procedure: In certain preferred embodiments, baseline food intake for the 12-h light and dark period is measured over a 48-h time period in rats (n=16) that receive no treatment. On the third day, rats are separated randomly into two groups. One group of rats (n=8) is treated with scrambled ghrelin siRNA, the other group of rats receive ghrelin siRNA in the same volume administered orally by using an intragastric gavage. The dose and the specific siRNA is determined by an initial screening of ghrelin siRNAs using cultured cells. The siRNA that induces a significant suppression of ghrelin mRNA (for example, Applicants have shown that GGUUCAAUGCUCCCUUCGAtt (SEQ ID NO:17) suppressed ghrelin mRNA levels by 40% in vitro) compared to scrambled or saline control is, then, used in vivo. Food intake is measure before dark and light onset on each experimental day and for 5 additional days after the siRNA treatment. Body weight is monitored once a day. Additionally, rats are implanted with EEG and EMG electrodes for sleep-wake recordings.

Substance	development of hypothermia / hypothermic response (ghrelin KO mice [1]; osmotic minipump, fasting day)	entered hypothermia later than those that received saline (ghrelin KO mice [1]; subcutaneous infusion of 300 nmol/kg/day for 10 days by osmotic minipump)	hypothermia in ghrelin KO mice (ghrelin KO mice [2])	suppression of ghrelin mRNA levels (ghrelin mRNA) [%]
obestatin	significantly attenuated; also recorded: significantly delayed	about 6 hours	attenuated hypothermia	–
SEQ ID NO:17: ghrelin siRNA (mouse), sequence GGUUCAAUGCUCCCUUCGAtt (GGUUCAAUGCUCCCUUCGATT; chemistry not given here)	–	–	–	40
